pIC50: −log10 of the molar value. Where two headings read alike, the source gives them in different places.
Tests used:
SARS-CoV-2 trVLP = format: cell-based
in vitro = format: cell-based, human; conditions: human, n.d. = not detected
Experimental: (§1) Caco-2-N cells were seeded into 96-well plate (1×10^3 cells/well). After 12 hours, cells were treated with drugs with different concentrations. Cell viability was measured two days post treatment with CellTiter-Glo Luminescent Cell Viability Assay kit (Promega, G7570) following standard protocol. In brief, cells in 100 μl culture medium were added with 100 μl CellTiter-Glo reagent. After 15 minutes, luminescence was recorded with GloMax (Promega). CC50 was determined using logarithmic interpolation using GraphPad Prism software version 7.0.

Caco-2-N cells = experiment: in vitro; format: cell-based, human; conditions: Fig 6B-6E, at tested concentrations, CellTiter-Glo
Experimental: as §1

SARS-CoV-2 GFP/ΔN trVLP = format: cell-based
HCoV-OC43 = conditions: cited from earlier work
[1] = test system: SARS-CoV-2 strain nCoV-SH01; experiment: microbe, parasite or virus in culture; format: cell-based
SARS-CoV-2 = conditions: cited from earlier work
[2] = test system: avian infectious bronchitis virus (IBV); conditions: cited from earlier work
[3] = Severe acute respiratory syndrome coronavirus 2, A549-ACE2

With `[Cl-].[Li+]` [LiCl] the “effect on GFP expression (trVLP production)” value (SARS-CoV-2 trVLP) was “inhibit GFP expression in a dose-dependent manner”.

With `Cc1cccc(C)c1OCC(=O)N[C@@H](Cc1ccccc1)[C@@H](O)C[C@H](Cc1ccccc1)NC(=O)[C@H](C(C)C)N1CCCNC1=O` [Lopinavir] the CC50 (in vitro; Fig 6F, CellTiter-Glo, two days treatment) was 19100 nM, the cytotoxic effect (Caco-2-N cells) was “serious cytotoxicity at the IC50 concentration” and the “Selectivity Index (SI)” value (SARS-CoV-2 GFP/ΔN trVLP) was 2.18.

In the case of `O[C@H]1[C@H]2c3cc4c(cc3CN3CCC(=C[C@@H]1O)[C@H]23)OCO4` [Lycorine chloride], the “inhibition of HCoV-OC43 infection” value (HCoV-OC43) is given as “inhibit HCoV-OC43 infection” and the pIC50 [1, 3] is given as 6.11.

`CO[C@@H]1C[C@@H](C[C@H]2CC[C@H](C)[C@H]([C@@H](C)C(=O)O)O2)O[C@]2(O[C@](C)([C@H]3CC[C@@](C)([C@@H]4O[C@@H]([C@H]5O[C@@](O)(CO)[C@H](C)C[C@@H]5C)C[C@@H]4C)O3)C[C@H]2C)[C@@H]1C` [Nigericin sodium] gave a pIC50 ([1]; read-out: IC50) of 4.95.

In the case of `CCC(CC)COC(=O)[C@H](C)N[P@](=O)(OC[C@H]1O[C@@](C#N)(c2ccc3c(N)ncnn23)[C@H](O)[C@@H]1O)Oc1ccccc1` [Remdesivir], the cytotoxic effect (Caco-2-N cells) was “no apparent cytotoxic effect”.

With `CC(C)c1nc(CN(C)C(=O)N[C@H](C(=O)N[C@@H](Cc2ccccc2)C[C@H](O)[C@H](Cc2ccccc2)NC(=O)OCc2cncs2)C(C)C)cs1` [Ritonavir] the cytotoxic effect (Caco-2-N cells) was “serious cytotoxicity at the IC50 concentration”.

With `Cn1cc(C2=C(c3ccc(Cl)cc3Cl)C(=O)NC2=O)c2ccccc21` [SB216763] the “effect on GFP expression (trVLP production)” value (SARS-CoV-2 trVLP) was “inhibit GFP expression in a dose-dependent manner”.

For `CC[C@@H](C(=O)[C@@H](C)[C@@H](O)[C@H](C)[C@@H]1O[C@@H]([C@@H](CC)C(=O)O)CC[C@@H]1C)[C@H]1O[C@]2(C=C[C@@H](O)[C@]3(CC[C@@](C)([C@H]4CC[C@](O)(CC)[C@H](C)O4)O3)O2)[C@H](C)C[C@@H]1C` [Salinomycin], the CC50 (in vitro; Fig 7G hit compounds, cell line for this CC50 not stated) is given as 20200 nM, the “inhibition of HCoV-OC43 infection” value (HCoV-OC43) is given as “inhibit HCoV-OC43 infection” and the “antiviral activity against SARS-CoV-2 infection in vitro” value (SARS-CoV-2) is given as “potent antiviral activity”. The “selectivity index (SI = CC50/IC50)” value [1] was 7.13 and the pIC50 [1, 3] was 5.55.

With GC376 the cytotoxic effect (Caco-2-N cells) was “no apparent cytotoxic effect”.

In the case of Monensin sodium, the “inhibition of HCoV-OC43 infection” value (HCoV-OC43) is given as “inhibit HCoV-OC43 infection”, the “inhibition of IBV infection” value [2] is given as “blocks avian infectious bronchitis virus (IBV) infection” and the pIC50 ([1]; read-out: IC50) is given as 6.20.

In the case of Tubeimoside I, the pIC50 ([1]; read-out: IC50) was 5.86.
